Consider five compounds from BindingDB's records for doi:10.1016/0960-894X(95)00583-F (1996).

As usually defined, the Ki is a dissociation constant, usually derived from enzyme kinetics or from competition with a known ligand. Low readings indicate tighter binding, high ones weaker binding.

This assay can be described thus: Compound was evaluated for binding affinity against [3H]- Cl-DPDPE labeled Opioid receptor delta 1 in guinea-pig brain homogenate.

SMILES strings stand for the structures.

Consider `Cc1ccc(/C=C/C(=O)N[C@@H]2CC[C@@]3(O)[C@H]4Cc5ccc(O)c6c5C3(CCN4CC3CC3)[C@H]2O6)cc1` [1N-[4-cyclopropylmethyl-10,17-dihydroxy-(5R,13R,14R,17S)-12-oxa-4-azapentacyclo[9.6.1.01,13.05,17.07,18]octadeca-7(18),8,10-trien-14-yl]-3-(4-methylphenyl)-(E)-2-propenamide], for which the Ki turned out to be 9.6 nM.
To `COC(=O)/C=C/C(=O)N[C@@H]1CC[C@@]2(O)[C@H]3Cc4ccc(O)c5c4[C@@]2(CCN3CC2CC2)[C@H]1O5` [Beta-Funeltrexamine] belongs 22 nM.
To `O=C(/C=C/c1ccccc1)N[C@@H]1CC[C@@]2(O)[C@H]3Cc4ccc(O)c5c4[C@@]2(CCN3CC2CC2)[C@H]1O5` [17-Cyclopropylmethyl-3,14beta-dihydroxy-4,5alpha-epoxy-6beta-(cinnamoylamino)morphinan] belongs 3.1 nM; to `O=C(/C=C/c1ccc(Cl)cc1)N[C@@H]1CC[C@@]2(O)[C@H]3Cc4ccc(O)c5c4C2(CCN3CC2CC2)[C@H]1O5` [1N-[4-cyclopropylmethyl-10,17-dihydroxy-(5R,13R,14R,17S)-12-oxa-4-azapentacyclo[9.6.1.01,13.05,17.07,18]octadeca-7(18),8,10-trien-14-yl]-3-(4-chlorophenyl)-(E)-2-propenamide], 5 nM; to `O=C(/C=C/c1ccc([N+](=O)[O-])cc1)N[C@@H]1CC[C@@]2(O)[C@H]3Cc4ccc(O)c5c4C2(CCN3CC2CC2)[C@H]1O5` [1N-[4-cyclopropylmethyl-10,17-dihydroxy-(5R,13R,14R,17S)-12-oxa-4-azapentacyclo[9.6.1.01,13.05,17.07,18]octadeca-7(18),8,10-trien-14-yl]-3-(4-nitrophenyl)-(E)-2-propenamide], 5.1 nM.
